Our source for the AC50 and EC50 values is ChEMBL document CHEMBL1201862, “PubChem BioAssay data set” (2004).

Among the targets are Cytochrome P450 2D6 (Homo sapiens, UniProt P10635); Cytochrome P450 2C9 (Homo sapiens, UniProt P11712); Cytochrome P450 3A4 (Homo sapiens, UniProt P08684).
Another test concerns the target T1, Cytochrome P450 1A2 (Homo sapiens, UniProt P05177).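 Further: PubChem cytochrome P450 panel assay, CYP1A2 panel member.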
T1 sequence (P05177 whole entry): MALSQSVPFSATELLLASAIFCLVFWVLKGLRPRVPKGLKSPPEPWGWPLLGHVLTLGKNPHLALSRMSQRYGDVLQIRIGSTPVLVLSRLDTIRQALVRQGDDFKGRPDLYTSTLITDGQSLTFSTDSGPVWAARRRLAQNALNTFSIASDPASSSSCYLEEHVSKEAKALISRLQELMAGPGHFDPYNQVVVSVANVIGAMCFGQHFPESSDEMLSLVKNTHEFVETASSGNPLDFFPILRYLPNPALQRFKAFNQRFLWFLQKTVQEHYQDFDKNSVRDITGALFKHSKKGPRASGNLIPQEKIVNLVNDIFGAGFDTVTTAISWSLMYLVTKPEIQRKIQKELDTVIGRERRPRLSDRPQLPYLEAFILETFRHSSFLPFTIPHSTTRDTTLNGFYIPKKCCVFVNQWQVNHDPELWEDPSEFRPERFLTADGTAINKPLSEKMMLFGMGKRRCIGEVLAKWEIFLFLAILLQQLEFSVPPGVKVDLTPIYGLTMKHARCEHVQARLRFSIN

Test [1] can be described thus: Luminescence Cell-Based Dose Confirmation HTS to Identify Activators of 5'UTR Stem-Loop Driven Alpha-Synuclein mRNA Translation in H4 Neuroglioblastoma Cells. [Related pubchem assays: 1829 (Project Summary), 1814 (Primary HTS)]. The test is classed as functional.
Test [2] in a line: Luminescence Cell-Based Dose Response HTS to Identify Activators of Luciferase Translation or Activity in H4 […] Cells. [Related pubchem assays: 1829 (Project Summary), 1814 (Primary HTS)]. The test is classed as functional.
The test system of the next test is H4. Briefly: Luminescence Cell-Based Dose Response HTS to Identify Activators of 5'UTR Stem-Loop Driven Prion Protein mRNA Translation in H4 Neuroglioblastoma Cells. [Related pubchem assays: 1829 (Project Summary), 1814 (Primary HTS)]. The test is classed as functional. To be noted: Homo sapiens.
A short description of test [3]: Trypanosoma cruzi growth suppression in host cells – NIH3T3 host cells, beta-gal luminescence, confirmation (AID 2044).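 Further: intracellular parasites grown in NIH/3T3 mouse fibroblasts as host cells; luminescent beta-galactosidase reporter signal from transgenic T. cruzi replicating inside host cells; inhibitors lower the luminescence signal.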 The test is classed as functional, cell-based.
Test [4] is described as follows: NIH3T3 cell viability loss – ATP luminescence, mouse fibroblasts, counter-screen, dose response (AID 2010).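 Further: cells exposed to compound for about 90 hours before reading.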 The class given is functional, cell-based. A general note: A counterscreen serves to expose hits that act by an unwanted route or on another target.
Test [5] can be described thus: luciferase reporter signal suppression in cells – H4 neuroglioma cells, luminescence, dose response (AID 1990). The class given is functional, cell-based. Background: Reporter assays use an easily measured gene product as a stand-in for the process of interest.
Test [6] can be described thus: Luminescence Cell-Based Dose Response HTS to Identify Inhibitors of 5'UTR Stem-Loop Driven Prion Protein mRNA Translation in H4 Neuroglioblastoma Cells. [Related pubchem assays: 1827 (Project Summary), 1813 (Primary HTS)]. The test is classed as functional.
The nature of test [7]: alpha-synuclein stem-loop luciferase translation blockers – H4 neuroglioma cells, luminescence, confirmation (AID 1988). The test is classed as functional, cell-based.
The target of another test is Cytochrome P450 2C19 (Homo sapiens, UniProt P33261). Briefly: Cytochrome panel assay with activity outcomes. Panel member name: p450-cyp2c19 Compounds with AC50 equal or less than 10 uM are considered active. The test is classed as functional. To be noted: read-out: AC50.
Cytochrome P450 2C19, sequence (P33261 whole entry): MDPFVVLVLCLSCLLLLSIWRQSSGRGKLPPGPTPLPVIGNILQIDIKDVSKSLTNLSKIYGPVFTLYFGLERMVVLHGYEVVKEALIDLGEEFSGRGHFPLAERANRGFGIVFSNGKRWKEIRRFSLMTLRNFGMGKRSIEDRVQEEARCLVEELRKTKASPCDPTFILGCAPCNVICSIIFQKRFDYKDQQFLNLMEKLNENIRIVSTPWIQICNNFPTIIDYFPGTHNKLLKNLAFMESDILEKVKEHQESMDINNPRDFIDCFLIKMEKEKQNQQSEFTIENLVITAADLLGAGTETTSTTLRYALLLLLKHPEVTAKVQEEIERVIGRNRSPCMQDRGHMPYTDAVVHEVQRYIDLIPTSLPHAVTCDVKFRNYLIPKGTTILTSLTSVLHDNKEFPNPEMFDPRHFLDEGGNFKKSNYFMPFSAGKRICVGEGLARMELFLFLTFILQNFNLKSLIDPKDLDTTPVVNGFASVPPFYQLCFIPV
Test [8] addresses T2, Heat shock factor protein 1 (Mus musculus, UniProt P38532).
T2 sequence (P38532 whole entry): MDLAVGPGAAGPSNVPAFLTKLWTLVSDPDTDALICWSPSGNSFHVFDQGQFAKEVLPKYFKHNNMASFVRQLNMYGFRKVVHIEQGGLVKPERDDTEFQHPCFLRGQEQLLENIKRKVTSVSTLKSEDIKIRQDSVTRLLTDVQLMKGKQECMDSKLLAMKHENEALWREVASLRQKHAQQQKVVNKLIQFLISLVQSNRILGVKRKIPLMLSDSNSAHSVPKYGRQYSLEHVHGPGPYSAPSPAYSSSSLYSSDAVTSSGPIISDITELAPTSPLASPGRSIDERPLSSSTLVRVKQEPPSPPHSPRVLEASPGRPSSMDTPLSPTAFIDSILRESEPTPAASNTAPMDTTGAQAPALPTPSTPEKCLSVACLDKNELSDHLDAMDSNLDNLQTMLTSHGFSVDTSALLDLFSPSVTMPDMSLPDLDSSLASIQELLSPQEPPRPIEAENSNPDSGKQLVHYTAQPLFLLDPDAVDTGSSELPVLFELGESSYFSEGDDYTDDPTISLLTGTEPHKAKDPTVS
The test is described as follows: decrease of HSF1-responsive luciferase luminescence – cell-based, NIH3T3, dose retest, confirmation (AID 2382).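 Further: NIH3T3 fibroblasts with HSF1-driven luciferase reporter stressed by proteasome inhibitor MG132; luminescence from HSF1-driven luciferase expression after 8 hours of MG132 stress.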 The class given is functional.

Calls of active or inactive are those of the source. A value given as a limit tells only on which side of the number the result lay.

Cytochrome P450 2C9, sequence (P11712 whole entry): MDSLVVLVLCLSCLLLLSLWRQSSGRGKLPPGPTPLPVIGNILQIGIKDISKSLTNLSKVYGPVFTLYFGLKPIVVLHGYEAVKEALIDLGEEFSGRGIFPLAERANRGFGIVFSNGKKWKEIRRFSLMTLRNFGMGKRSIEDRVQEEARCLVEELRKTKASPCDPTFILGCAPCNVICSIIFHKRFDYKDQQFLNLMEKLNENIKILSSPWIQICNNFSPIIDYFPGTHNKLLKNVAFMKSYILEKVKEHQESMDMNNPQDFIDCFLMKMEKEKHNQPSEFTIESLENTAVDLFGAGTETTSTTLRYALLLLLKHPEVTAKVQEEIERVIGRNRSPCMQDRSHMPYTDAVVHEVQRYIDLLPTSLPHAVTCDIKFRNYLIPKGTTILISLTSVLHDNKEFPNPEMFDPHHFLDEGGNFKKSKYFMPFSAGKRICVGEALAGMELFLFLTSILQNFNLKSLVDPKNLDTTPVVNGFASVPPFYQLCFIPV
Cytochrome P450 3A4, sequence (P08684 whole entry): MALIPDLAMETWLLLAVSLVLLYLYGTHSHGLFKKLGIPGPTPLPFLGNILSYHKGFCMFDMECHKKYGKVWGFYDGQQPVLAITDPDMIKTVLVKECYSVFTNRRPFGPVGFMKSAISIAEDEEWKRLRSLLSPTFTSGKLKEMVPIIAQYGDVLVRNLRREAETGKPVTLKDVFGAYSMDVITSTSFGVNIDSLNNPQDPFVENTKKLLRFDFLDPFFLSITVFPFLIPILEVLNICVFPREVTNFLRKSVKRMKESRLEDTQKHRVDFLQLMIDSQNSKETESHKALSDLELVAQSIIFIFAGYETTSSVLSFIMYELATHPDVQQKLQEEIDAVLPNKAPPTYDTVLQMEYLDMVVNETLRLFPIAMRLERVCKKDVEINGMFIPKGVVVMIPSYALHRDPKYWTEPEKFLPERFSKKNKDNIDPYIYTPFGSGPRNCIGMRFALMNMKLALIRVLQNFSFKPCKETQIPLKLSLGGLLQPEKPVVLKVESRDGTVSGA
Cytochrome P450 2D6, sequence (P10635 whole entry): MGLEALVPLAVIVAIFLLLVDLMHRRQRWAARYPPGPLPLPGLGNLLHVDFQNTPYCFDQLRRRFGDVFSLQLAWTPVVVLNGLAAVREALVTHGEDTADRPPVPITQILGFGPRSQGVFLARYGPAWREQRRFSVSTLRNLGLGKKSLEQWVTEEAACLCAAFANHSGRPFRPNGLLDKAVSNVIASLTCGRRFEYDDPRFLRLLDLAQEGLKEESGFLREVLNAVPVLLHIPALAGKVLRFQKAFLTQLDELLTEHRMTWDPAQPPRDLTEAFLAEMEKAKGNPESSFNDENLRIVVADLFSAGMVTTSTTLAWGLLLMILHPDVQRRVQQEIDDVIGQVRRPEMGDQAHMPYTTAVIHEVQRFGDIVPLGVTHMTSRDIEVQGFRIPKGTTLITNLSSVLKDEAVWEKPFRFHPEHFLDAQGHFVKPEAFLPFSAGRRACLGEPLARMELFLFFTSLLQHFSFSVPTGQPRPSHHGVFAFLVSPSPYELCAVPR

The AC50 is the concentration giving half of the maximal activity seen. As for `COCCn1c(=O)c(-c2cccc(C#N)c2)nc2cnc(Nc3ccccc3)nc21`, the AC50 on Cytochrome P450 2D6 and on Cytochrome P450 1A2 was 2.51 µM (inconclusive) throughout.
Turning to `COc1cccc(Nc2ncc3nc(-c4ccc(F)cc4)c(=O)n(C)c3n2)c1`, the half-maximal activity concentration (AC50) on Cytochrome P450 1A2 was 3.16 µM (inconclusive).
Consider `COc1ccc2nc(C)cc(SCC(=O)NNC(=O)COc3ccc(C)cc3)c2c1`, for which the half-maximal activity concentration (AC50) at Cytochrome P450 2D6 is 2 µM (inconclusive); at Cytochrome P450 2C9, 1780 nM (inconclusive).
In general, EC50 refers to the concentration needed to bring the measured effect to its halfway point. With `c1ccn2c(c1)nc1c2nc2ccccn21`, the 50% effective concentration (EC50) in test [1] is 7.67 µM (active); in [2] it was 25.1 µM (active); in the test on H4, > 120 µM (not active).
On to `COC(=O)C/C=C\[C@@H](C)[C@@H](/C=N\O[C@@H](C)CN1CCCc2nc(C)c(C)cc21)OC`, for which the AC50 was 2.51 µM (inconclusive) at Cytochrome P450 2D6 and 3.16 µM (inconclusive) at Cytochrome P450 3A4.
Consider `Oc1nc(CN2CCN(C/C=C/c3ccccc3)CC2)nc2ccccc12`, for which the concentration giving a half-maximal response (EC50) in test [1] was > 120 µM (not active); in test [2], > 120 µM (not active); with H4, > 120 µM (not active); in test [3], 637 nM (active); in test [4] it was > 60 µM (not active).
Regarding `Cc1ccc(-n2nc3ccc(N)cc3n2)c(C)c1`, the EC50 in test [5] was 15.2 µM (active); in test [6] it was 20.3 µM (active); in test [7], 16.6 µM (active).
Take `C=CCOc1c(Cl)cc(C(=S)N2CCCC2)cc1OCC`: the 50% effective concentration (EC50) in test [1] is > 120 µM (not active); in [2], > 120 µM (not active); in the test on H4, 30.3 µM (active).
For the molecule `Cc1cc(C(=O)COC(=O)Cc2nnc(O)c3ccccc23)c(C)n1-c1ccc2c(c1)OCCO2`, the EC50 is > 120 µM (not active) in test [1]; > 120 µM (not active) in [2]; 71.5 µM (active) in the test with H4; 2280 nM (active) in [3]; > 60 µM (not active) in test [4].
As to `O=[N+]([O-])c1ccc(Nc2nc3ccccc3s2)cc1`, the AC50 is 3.16 µM (inconclusive) at Cytochrome P450 2D6 and 5.01 µM (inconclusive) at Cytochrome P450 3A4.
`O=C(C1CCCN(c2ncnc3c2nc2n3CCCCC2)C1)N1CCN(c2ccccc2)CC1` (stereo not given): the EC50 (in test [1]; in [2]; in the test on H4) was > 120 µM (not active) throughout.
Turning to `CN(C)c1ncc2nc(CCc3ccccc3)c(=O)n(Cc3cccs3)c2n1`, the concentration at half-maximal activity (AC50) at Cytochrome P450 2D6 is 25.1 µM (inconclusive).
Take `CNCCNS(=O)(=O)c1cccc2cnccc12`: the AC50 on Cytochrome P450 2D6 was 5.01 µM (inconclusive); at Cytochrome P450 3A4, 20 µM (inconclusive).
Regarding `CC(C)Oc1ccccc1C1Nc2ccccc2C(=O)N1c1ccc2c(c1)OCCO2` (stereo not given), the figures for the EC50 in [6] and in test [7] were > 120 µM (not active) and 9.51 µM (active), respectively.
`O=C(c1cc(C(F)(F)F)cc(C(F)(F)F)c1)N1CCC[C@@]2(CCN(Cc3nccs3)C2)C1`: the concentration at half-maximal activity (AC50) at Cytochrome P450 1A2 is 20 µM (inconclusive).
For `Cc1ccc2c(c1)[C@@H]1CN(C)CC[C@@H]1N2S(=O)(=O)c1ccc(F)cc1`, the half-maximal activity concentration (AC50) at Cytochrome P450 2C19 was 28.2 µM (inconclusive); at Cytochrome P450 1A2 it was 17.8 µM (inconclusive); on Cytochrome P450 2C9, 5.62 nM (inconclusive).
With `NNC(=O)c1[nH]c2ccccc2c1-c1ccccc1`, the EC50 in test [5], in test [6] and in test [7] was > 120 µM (not active) in each case.
For the molecule `Nc1nc(O)c(/N=N\c2ccccc2)c(C(=O)O)n1`, the AC50 at Cytochrome P450 1A2 is 1.26 µM (inconclusive).
`CCCCn1c(SCC(=O)Nc2nccs2)nc2ccccc2c1=O`: the figures for the concentration at half-maximal activity (AC50) on Cytochrome P450 2C19, at Cytochrome P450 1A2 and at Cytochrome P450 2C9 were 0.0708 µM (inconclusive), 0.2 µM (inconclusive) and 398 nM (inconclusive), respectively.
Take `CO[C@H]1COC(=O)[C@H]2CCCN2C(=O)C/C=C\[C@@H](C)[C@H](OC)COC(=O)[C@@H](OCc2ccccc2)/C=C\[C@@H]1C`: the AC50 on Cytochrome P450 2D6 is 3.16 µM (inconclusive); on Cytochrome P450 3A4 it was 3.98 µM (inconclusive).
As to `O[C@@H](COc1ccc(Cl)cc1Cl)CN1CCCC1`, on Cytochrome P450 1A2, the AC50 is 5.01 µM (inconclusive).
On the same count and under the same terms, to `CC[C@H](Oc1ccc(Cl)cc1)C(=O)OC1C[C@H]2CC[C@@H](C1)N2C` (stereo not given in full) belongs 31.6 µM (inconclusive).
`COCC(=O)N1CCC2(CCN(Cc3ccccc3)CC2)CC1`: the concentration at half-maximal activity (AC50) at Cytochrome P450 2D6 was 25.1 µM (inconclusive).
As for `CCOC(=O)N1CCN(C(=O)CN(c2ccc(OC)cc2)S(C)(=O)=O)CC1`, the EC50 in test [5] was > 120 µM (not active); in test [6], 83.4 µM (active); in test [7], > 120 µM (not active).
For the molecule `Cn1c(SCc2nc(O)c3ccc(C(=O)O)cc3n2)nnc1C(F)(F)F`, the EC50 in test [5] was > 120 µM (not active); in [6], 38.9 µM (active); in test [7] it was > 120 µM (not active).
With `COc1cccc(-c2cc(NCc3cccnc3)ncn2)c1`, the AC50 on Cytochrome P450 2D6 is 25.1 µM (inconclusive).
`Cc1ccc2sc(N(CCCN(C)C)C(=O)CCS(=O)(=O)c3ccccc3)nc2c1C`: the EC50 in test [5] is 14.3 µM (active); in test [6], 13.7 µM (active); in test [7] it was 11.1 µM (active); in [3] it was 226 nM (active); in test [4], 4.17 µM (active).
As for `COc1cc2c(cc1NC(=O)CN1CCN(S(=O)(=O)c3ccccc3F)CC1)oc1ccccc12`, the half-maximal effective concentration (EC50) (in test [1]; in test [2]; with H4) was > 120 µM (not active) in each case.
As to `O=C(NCCN1CCN(C(=O)c2cccc(Br)c2)CC1)C(=O)Nc1ccc(Br)cc1`, the results for the half-maximal effective concentration (EC50) in [5], in [6] and in [7] were 13.8 µM (active), 18.7 µM (active) and 65.2 µM (active), respectively.
With `COc1ccc(Nc2nc(N)nc(CSc3nc(C)cc(C)n3)n2)cc1`, the EC50 in [5] was 19.8 µM (active); in [6] it was > 120 µM (not active); in [8], > 195 µM (not active); in test [7], 91.3 µM (active).
With `CC1Cc2nc(SCC(=O)Nc3ccc4c(c3)OCO4)n(Cc3ccccc3)c(=O)c2S1` (stereo not given), the EC50 was 10.8 µM (active) in test [1], 5.9 µM (active) in test [2] and 13.2 µM (active) in the test on H4.
For the molecule `CS(=O)(=O)Nc1cccc(-c2ccc3ncnc(NCc4cccnc4)c3c2)c1`, on Cytochrome P450 2D6, the concentration at half-maximal activity (AC50) is 20 µM (inconclusive).
For the molecule `CC(C)[C@@H]1COC(c2cccc(C3=N[C@H](C(C)C)CO3)c2)=N1`, the concentration giving a half-maximal response (EC50) in [1] is > 120 µM (not active); in test [2] it was 71.1 µM (active); in the test with H4, 10.6 µM (active).
Regarding `CC(C)(C)NC(=O)CN(Cc1cccs1)C(=O)CCC(=O)Nc1nccs1`, on Cytochrome P450 2D6, the half-maximal activity concentration (AC50) was 28.2 µM (inconclusive).
Take `COc1ccc(C(=O)N/N=C2/SCC(=O)N2Cc2ccc3c(c2)OCO3)cc1OC`: the AC50 at Cytochrome P450 1A2 was 25.1 µM (inconclusive).
Regarding `CN(C)C(=O)c1ccc(-c2ccc3ncnc(NCc4ccccc4)c3c2)cc1`, on Cytochrome P450 2D6, the AC50 was 31.6 µM (inconclusive).
In the case of `Clc1ccc2c(NCCNc3ccnc4cc(Cl)ccc34)ccnc2c1`, the AC50 on Cytochrome P450 1A2 is 5.01 µM (inconclusive).
